{
  "source": "patent US20060276423A1",
  "about": "“Survivin-directed RNA interference-compositions and methods” (priority 2005, published 2006)",
  "tested_on": "Human Umbilical Vein Endothelial (HUVE) cells",
  "assay": "In vitro tube formation assay on BME",
  "assay_type": "cell-based",
  "conditions": "most marked between 4 and 16 hours after plating",
  "method": "FIG. 7: Interference with Survivin-ΔEx3 inhibits angiogenesis in vitro. Human Umbilical Vein Endothelial (HUVE) cells were transfected with shRNAs of the instant invention or incubated with antibodies against Survivin-ΔEx3 and the results compared to HUVE cells treated with known inducers/inhibitors of in vitro angiogenesis. Treated/transfected cells were plated on growth factor reduced basement membrane extract (BME) to support in vitro tube formation. […] Quantitative data shown in (E) are mean±s.e. of 5 replicates per sample.\nSurvivin ΔEx3 activity was disrupted in an in vitro tube formation assay by either downregulating Survivin ΔEx3 mRNA with an shRNA or inhibiting Survivin ΔEx3 protein with an anti-Survivin ΔEx3 antibody. To downregulate transcription, an shRNA targeting the exon2-exon-4 boundary, specific for Survivin ΔEx3 was used. A scrambled shRNA and a cocktail of 3 shRNAs targeting all Survivin isoforms were used as controls (FIG. 7). HUVECs were transfected with shRNA plasmids in combination with a plasmid encoding eGFP. The cells were sterile sorted by FACS to isolate the population of cells that was successfully transfected, based on eGFP fluorescence. […] Tube formation was quantified by counting the number of branches and tube length from 5 representative fields per replicate, in a double-blinded fashion.",
  "note": "Starred links: 1 amine or outer side, 2 acyl side, 3 side chain; linkers in the order of their positions; H or OH if unused. Positions of bridges follow the written chain, without caps; N, C: chain ends. Non-standard residues stand in square brackets, D forms with d. Residues, ends and D or L forms follow the SMILES beside them. Chains are numbered I, II in the order given. Actinocin(9to1) = Cc1c2oc3c(C)ccc(C(=O)[*:1])c3nc-2c(C(=O)[*:2])c(N)c1=O; NMeV = CN[C@H](C(=O)O)C(C)C; Sar = CNCC(=O)O",
  "data": [
    {"smiles": "Cc1c2oc3c(C)ccc(C(=O)N[C@@H]4C(=O)N[C@H](C(C)C)C(=O)N5CCC[C@H]5C(=O)N(C)CC(=O)N(C)[C@@H](C(C)C)C(=O)O[C@@H]4C)c3nc-2c(C(=O)N[C@@H]2C(=O)N[C@H](C(C)C)C(=O)N3CCC[C@H]3C(=O)N(C)CC(=O)N(C)[C@@H](C(C)C)C(=O)O[C@@H]2C)c(N)c1=O", "note": "[actinomycin-D] (I: T[dV]P[Sar][NMeV] / II: T[dV]P[Sar][NMeV]; ester I:1-I:C, II:1-II:C; linker I:N-II:N via Actinocin(9to1))", "values": [
      {"measurement": "tube formation on BME", "result": "inhibition of tube formation"}
    ]}
  ]
}
